Results published in US10640457B2, “Histone acetyltransferase activators and uses thereof” (The Trustees of Columbia University in the City of New York, priority 2009, dated 2020).
Values joined by “and” are separate entries in the source; they are usually repeats but may differ in a detail not shown here. Equal entries are not always repeated. “Also recorded” adds a separate entry of the source.

Experiments:
HDAC8 = biological target: T1, HDAC8 (Homo sapiens, UniProt Q9BY41); assay: HDAC8 fluorogenic activity assay; settings: for % Activity: Repeat1/Repeat2, listed as OA2
T1 sequence (Q9BY41 1-377): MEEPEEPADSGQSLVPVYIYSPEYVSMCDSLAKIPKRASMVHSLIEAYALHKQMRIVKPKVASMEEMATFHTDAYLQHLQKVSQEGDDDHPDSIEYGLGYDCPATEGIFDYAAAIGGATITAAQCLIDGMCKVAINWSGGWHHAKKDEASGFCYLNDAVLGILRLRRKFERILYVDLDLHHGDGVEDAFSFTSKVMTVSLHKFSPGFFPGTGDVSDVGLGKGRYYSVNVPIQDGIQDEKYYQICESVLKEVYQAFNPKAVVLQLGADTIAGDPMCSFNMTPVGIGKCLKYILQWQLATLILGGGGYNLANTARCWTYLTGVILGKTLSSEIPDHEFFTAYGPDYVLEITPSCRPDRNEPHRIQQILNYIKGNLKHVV

[1] = test system: histone acetylation (ACH3) in hippocampus, cortex, liver; assay: Western blot of histone acetylation in mouse tissues after compound administration; format: in vivo, mice
Excerpt: The mice liver and hippocampus were extracted 1 hr after treatment. […] In addition to the mouse liver and hippocampus, the mouse cortex was also extracted.
The BBB was by-passed by giving it through cannulas implanted onto the dorsal hippocampus. Both the hippocampus and cortex were extracted at 2 hrs or 4 hrs after treatment.
Two and four hrs after its administration, the mice were sacrificed and hippocampi were extracted. […] Purity was verified through Nuclear Magnetic Resonance (NMR). […] Hippocampus extraction was made at 3 different time points (0.5, 1 and 2 hrs post treatment). We then ran a western blotting for ACH3.
The compound was i.p. administered at 20 mg/Kg, mice were sacrificed 30 min later, and hippocampi were removed and quickly frozen for WB analysis. […] (each herein incorporated by reference in its entirety). […]

[2] = Pharmacokinetics and brain penetration, plasma and brain by LC-MS/MS; format: in vivo, BALB/c mice
Procedure: After i.p. and i.v. administration at 20 mg/kg to BALB/c mice, plasma and brain concentrations were determined by LC-MS/MS.

HDAC6 = biological target: T2, HDAC6 (Homo sapiens, UniProt Q9UBN7); assay: HDAC6 fluorogenic activity assay; settings: for % Activity: Repeat1/Repeat2, listed as OA2
T2 sequence (Q9UBN7 1-1215): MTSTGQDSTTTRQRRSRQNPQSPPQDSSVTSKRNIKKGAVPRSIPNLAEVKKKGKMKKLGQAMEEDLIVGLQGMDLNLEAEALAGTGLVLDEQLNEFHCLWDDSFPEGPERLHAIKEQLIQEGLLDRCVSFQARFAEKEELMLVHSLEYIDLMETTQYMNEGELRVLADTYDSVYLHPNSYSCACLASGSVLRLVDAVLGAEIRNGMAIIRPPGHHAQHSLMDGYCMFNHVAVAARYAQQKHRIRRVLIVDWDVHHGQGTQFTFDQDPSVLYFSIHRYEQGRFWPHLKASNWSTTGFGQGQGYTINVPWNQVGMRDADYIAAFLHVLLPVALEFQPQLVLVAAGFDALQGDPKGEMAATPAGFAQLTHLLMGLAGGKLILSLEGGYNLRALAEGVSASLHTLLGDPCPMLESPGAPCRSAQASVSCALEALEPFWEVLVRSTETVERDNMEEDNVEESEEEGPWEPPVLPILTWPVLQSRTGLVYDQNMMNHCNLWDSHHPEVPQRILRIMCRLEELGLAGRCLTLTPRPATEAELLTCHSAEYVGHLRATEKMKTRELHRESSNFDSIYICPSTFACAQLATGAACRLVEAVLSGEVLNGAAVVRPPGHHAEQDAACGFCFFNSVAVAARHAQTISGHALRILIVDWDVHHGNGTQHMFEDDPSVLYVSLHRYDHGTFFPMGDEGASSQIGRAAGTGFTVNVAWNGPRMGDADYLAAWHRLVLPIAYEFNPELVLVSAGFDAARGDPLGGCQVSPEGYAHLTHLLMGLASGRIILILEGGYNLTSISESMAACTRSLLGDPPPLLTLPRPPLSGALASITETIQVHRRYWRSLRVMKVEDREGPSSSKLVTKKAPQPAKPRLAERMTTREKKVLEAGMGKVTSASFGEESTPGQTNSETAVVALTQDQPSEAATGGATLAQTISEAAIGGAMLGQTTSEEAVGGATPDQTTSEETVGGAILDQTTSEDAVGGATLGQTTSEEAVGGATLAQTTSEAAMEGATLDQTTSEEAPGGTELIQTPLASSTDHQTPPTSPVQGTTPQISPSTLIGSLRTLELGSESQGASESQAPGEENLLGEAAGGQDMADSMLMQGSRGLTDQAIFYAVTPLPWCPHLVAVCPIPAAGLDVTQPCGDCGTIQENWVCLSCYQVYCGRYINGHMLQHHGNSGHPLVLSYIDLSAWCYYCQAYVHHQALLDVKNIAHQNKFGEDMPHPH

[3] = IP administration 20 mg/kg, brain
[4] = IV administration 20 mg/kg, brain

CCOc1cccc(OCCN(C)C)c1C(=O)Nc1ccc(Cl)c(C(F)(F)F)c1 [YF2]
IC50 (HDAC8): > 200 µM
% Activity (HDAC8; OA2 Log[nM] 0.5): 101.88% and 103.15%
% Activity (HDAC8; OA2 Log[nM] 1.5): 102.04%
% Activity (HDAC8; OA2 Log[nM] 2.0): 108.80%
% Activity (HDAC8; OA2 Log[nM] 3.0): 84.45%
% Activity (HDAC8; OA2 Log[nM] 3.5): 109.88%
% Activity (HDAC8; OA2 Log[nM] 4.5): 85.17% and 86.60%
% Activity (HDAC8; OA2 Log[nM] 5.3): 58.33% and 105.63%
acetylation of H3K4, H3K9, H3K14, H4K5, H4K8, H4K12, H4K16 and H2B in hippocampus ([1]; 20 mg/Kg i.p., sacrificed 30 min later): increased
ACH3 in hippocampus ([1]; 50 mg/kg i.p., 2 and 4 hrs after administration): increase
ACH3 levels in hippocampus ([1]; 5, 10, 20 mg/Kg i.p. in saline, 0.5, 1 and 2 hrs, except 1 hr-10 mg/kg): dramatically increased
histone acetylation levels following Aβ elevation ([1]; after foot shock, FIG. 80): restores
histone acetylation levels following Aβ elevation ([1]; basal conditions, FIG. 79): restores
crossing of the blood brain barrier (BBB) ([1]; concluded from brain histone acetylation after i.p. administration): able to cross the BBB; also recorded: crosses the BBB and the cell membrane
Aβ-induced decrease in H3 acetylation levels in hippocampus ([1]; i.p. 5 mg/kg, Aβ 200 nM infused onto dorsal hippocampi, 5 mg/kg): able to rescue; also recorded: rescued
histone 3 acetylation levels of the hippocampus ([1]; i.p., FIG. 1): increases
AUC0-t [2, 3]: 6493 ng·h/g
AUC0-∞ [2, 3]: 6564 ng·h/g
F [2, 3]: 29.2%
F ([2]; IP administration 20 mg/kg, plasma): 41.0%
AUC0-t [2, 4]: 22222 ng·h/g
AUC0-∞ [2, 4]: 22581 ng·h/g
IC50 (HDAC6): > 200 µM
% Activity (HDAC6; OA2 Log[nM] 0.5): 104.75% and 106.28%
% Activity (HDAC6; OA2 Log[nM] 1.0): 106.10% and 100.51%
% Activity (HDAC6; OA2 Log[nM] 1.5): 96.75% and 108.50%
% Activity (HDAC6; OA2 Log[nM] 2.0): 100.33% and 105.31%
% Activity (HDAC6; OA2 Log[nM] 2.5): 99.30% and 99.28%
% Activity (HDAC6; OA2 Log[nM] 3.0): 100.06% and 94.62%
% Activity (HDAC6; OA2 Log[nM] 3.5): 96.79% and 97.61%
% Activity (HDAC6; OA2 Log[nM] 4.0): 94.62% and 100.10%
% Activity (HDAC6; OA2 Log[nM] 4.5): 79.13% and 87.65%
% Activity (HDAC6; OA2 Log[nM] 5.3): 70.40% and 102.77%
